From ChEMBL document CHEMBL5518227, “Discovery of JNJ-1802, a First-in-Class Pan-Serotype Dengue Virus NS4B Inhibitor” (J Med Chem, 2024)
Converted amounts (≈) assume the structure as drawn. “And” between values parts separate entries of the source, which are not always exact repeats. Equal entries are not always repeated.

How the values were obtained:
[1] = Metabolic stability in human liver microsomes assessed as intrinsic clearance preincubated for 5 mins followed by NADPH addition measured upto 60 mins by LC-MS/MS analysis; assay type: ADME, Microsome; details: time < 65 min, read-out: CLH
[2] = Metabolic stability in human hepatocytes assessed as intrinsic clearance measured per million cells incubated upto 120 mins by LC-MS/MS analysis; assay type: ADME, cell-based, Hepatocyte; details: read-out: CLH
[3] = system: dengue virus type 2; test: Antiviral activity against DENV-2 16681 expressing eGFP infected in african green monkey Vero cells incubated with cells for 24 hrs followed by viral infection measured after 3 days by laser microscopic analysis; assay type: functional, organism-based; details: Dengue virus, 16681, Vero
[4] = system: dengue virus type 3; test: Antiviral activity against DENV-3 H87 infected in african green monkey Vero cells incubated for 24 hrs measured after 3 days post infection by RT-PCR analysis; assay type: functional, organism-based
[5] = system: dengue virus type 4; test: Antiviral activity against DENV-4 H241 infected in african green monkey Vero cells incubated for 24 hrs measured after 3 days post infection by RT-PCR analysis; assay type: functional, organism-based
[6] = system: dengue virus type 1; test: Antiviral activity against DENV-1 TC974#666 infected in african green monkey Vero cells incubated for 24 hrs measured after 3 days post infection by RT-PCR analysis; assay type: functional, organism-based
[7] = Metabolic stability in rat liver microsomes assessed as intrinsic clearance preincubated for 5 mins followed by NADPH addition measured upto 60 mins by LC-MS/MS analysis; assay type: ADME, Microsome; details: time < 65 min, read-out: CLH
[8] = Metabolic stability in mouse liver microsomes assessed as intrinsic clearance preincubated for 5 mins followed by NADPH addition measured upto 60 mins by LC-MS/MS analysis; assay type: ADME, Microsome; details: time < 65 min, read-out: CLH
[9] = Chromatographic hydrophobicity index, log D of the compound at pH 7.4 by LC/MS analysis; assay type: physicochemical; details: buffer
[10] = AUC in Sprague-Dawley rat at 10 mg/kg, po measured after 24 to 48 hrs by LC-MS/MS analysis; assay type: ADME, organism-based; details: in vivo, time 24-48 hrs
[11] = Clearance in Sprague-Dawley rat at 2.5 mg/kg, iv measured after 24 hrs by LC-MS/MS analysis; assay type: ADME, organism-based; details: in vivo
[12] = Cmax in Sprague-Dawley rat at 10 mg/kg, po measured after 24 to 48 hrs by LC-MS/MS analysis; assay type: ADME, organism-based; details: in vivo, time 24-48 hrs
[13] = Metabolic stability in rat hepatocytes assessed as intrinsic clearance measured per million cells incubated upto 120 mins by LC-MS/MS analysis; assay type: ADME, cell-based, Hepatocyte; details: read-out: CLH
[14] = Volume of distribution at steady state in Sprague-Dawley rat at 2.5 mg/kg, iv measured after 24 hrs by LC-MS/MS analysis; assay type: ADME, organism-based; details: in vivo, read-out: Vdss
[15] = Oral bioavailability in Sprague-Dawley rat at 10 mg/kg measured after 24 to 48 hrs by LC-MS/MS analysis; assay type: ADME, organism-based; details: in vivo, time 24-48 hrs
[16] = Thermodynamic solubility of the compound in aqueous buffer at pH 7.4 measured after 24 hrs by UPLC analysis; assay type: physicochemical; details: read-out: Therm_solubility
[17] = Clearance in Sprague-Dawley rat assessed as liver blood flow at 2.5 mg/kg, iv measured after 24 hrs by LC-MS/MS analysis; assay type: ADME, organism-based; details: in vivo
[18] = Elimination half life in Sprague-Dawley rat at 2.5 mg/kg, iv measured after 24 hrs by LC-MS/MS analysis; assay type: ADME, organism-based; details: in vivo, read-out: beta t1/2 (converted)
[19] = Dengue virus, H87, Vero, read-out: EC50
[20] = Dengue virus, TC974#666, Vero, read-out: EC50

SMILES | microsomal CLint [1] [µL/min/mg] | hepatocyte CLint [2] [µL/min/1e6 cells] | EC50 [3] [nM] | EC50 [4, 19] [nM] | EC50 [5] [nM] | EC50 [6, 20] [nM] | Chromatographic log D at pH 7.4 [9] | further results
COc1cc(NC(C(=O)c2c[nH]c3ccccc23)c2ccc(F)cc2OC)cc(S(C)(=O)=O)c1 (single isomer, unassigned; (+)) | 9 | 7 | 2 | 120 | 230 | 12 | – | microsomal CLint [7]: 15 µL/min/mg; microsomal CLint [8]: 27 µL/min/mg
COc1cc(NC(C(=O)c2c[nH]c3cc(F)c(C)cc23)c2ccc(Cl)cc2OC)cc(S(C)(=O)=O)c1 (single isomer, unassigned; (+)) | < 8 | 2.4 | 0.17 | 8 | 44 | 0.4 | 3.68 | –
COc1cc(NC(C(=O)c2c[nH]c3c(C)c(F)ccc23)c2ccc(Cl)cc2OC)cc(S(C)(=O)=O)c1 (single isomer, unassigned; (+)) | < 8 | – | 0.24 | 19 | 83 | 2 | 3.73 | –
COc1cc(NC(C(=O)c2c[nH]c3cc(F)ccc23)c2ccc(Cl)cc2OC)cc(S(C)(=O)=O)c1 (single isomer, unassigned; (+)) | < 8 | – | – | – | – | – | 3.46 | EC50 ([6]; vero, read-out: EC50): 20 nM and 2 nM
COc1cc(NC(C(=O)c2c[nH]c3ccccc23)c2ccc(F)cc2)cc(OCCO)c1 (stereo not drawn) | < 8 | – | 14 | 950 | 2600 | 86 | – | microsomal CLint [7]: 24 µL/min/mg; microsomal CLint [8]: 94 µL/min/mg
COc1cc(NC(C(=O)c2c[nH]c3cc(OC)ccc23)c2ccc(Cl)cc2OC)cc(S(C)(=O)=O)c1 (single isomer, unassigned; (+)) | < 8 | 10 | 0.3 | 48 | 110 | 4 | 3.23 | –
COc1cc(NC(C(=O)c2c[nH]c3c(C)cc(OC(F)(F)F)cc23)c2ccc(Cl)cc2OC)cc(S(C)(=O)=O)c1 (stereo not drawn) | < 8 | < 1.2 | 0.051 | 1 | 11 | 0.1 | 4.16 | –
COc1cc(NC(C(=O)c2c[nH]c3ccc(C(F)(F)F)cc23)c2ccc(Cl)cc2OC)cc(S(C)(=O)=O)c1 (single isomer, unassigned; (+)) | < 8 | < 1.2 | 0.31 | 6 | 15 | 0.4 | 3.87 | –
COc1cc(NC(C(=O)c2c[nH]c3cc(OC)c(C)cc23)c2ccc(F)cc2OCCO)cc(S(C)(=O)=O)c1 (single isomer, unassigned; (+)) | – | < 1.9 | 0.84 | 43 | 110 | 3 | 2.98 | AUC [10]: 1010 ng·h/mL; clearance [11]: 30 mL/min/kg; Cmax [12]: 94 ng/mL; hepatocyte CLint [13]: 11 µL/min/1e6 cells; Vd [14]: 9.6 L/kg; bioavailability [15]: 18%; solubility thermodynamic at 24 h [16]: < 1 µg/mL; LBF [17]: 42%; half-life [18]: 4.2 h
COc1cc(NC(C(=O)c2c[nH]c3cc(OC)c(C)cc23)c2ccc(Cl)cc2OCCO)cc(S(C)(=O)=O)c1 (single isomer, unassigned; (+)) | – | < 1.9 | 0.37 | 17 | 53 | 2 | 3.24 | AUC [10]: 1200 ng·h/mL; clearance [11]: 21 mL/min/kg; Cmax [12]: 103 ng/mL; hepatocyte CLint [13]: 3.7 µL/min/1e6 cells; Vd [14]: 7.1 L/kg; bioavailability [15]: 16%; solubility thermodynamic at 24 h [16]: < 1 µg/mL; LBF [17]: 31%; half-life [18]: 4.7 h
COc1cc(NC(C(=O)c2c[nH]c3ccccc23)c2ccc(F)cc2)cc(S(=O)(=O)CCCO)c1 (stereo not drawn) | 35 | – | 230 | – | 14000 | – | – | EC50 ([4]; vero): Not Active; EC50 ([6]; vero): Not Active; microsomal CLint [7]: 66 µL/min/mg
COc1cc(NC(C(=O)c2c[nH]c3cc(OC)c(F)cc23)c2ccc(Cl)cc2OC)cc(S(C)(=O)=O)c1 (single isomer, unassigned; (+)) | < 8 | 10 | 0.34 | 53 | 100 | 4 | 3.22 | –
COc1cc(NC(C(=O)c2c[nH]c3ccccc23)c2ccc(F)cc2)cc(S(C)(=O)=O)c1 (stereo not drawn) | 12 | – | 9 | 680 | 1800 | 88 | – | microsomal CLint [7]: 16 µL/min/mg; microsomal CLint [8]: 48 µL/min/mg
COc1cc(NC(C(=O)c2c[nH]c3cc(OC)c(OC(F)(F)F)cc23)c2ccc(Cl)cc2OC)cc(S(C)(=O)=O)c1 (single isomer, unassigned; (+)) | < 8 | < 1.2 | 0.057 | 4 | 11 | 0.3 | 3.82 | –
COc1cc(NC(C(=O)c2c[nH]c3cc(F)ccc23)c2ccc(F)cc2OCCO)cc(S(C)(=O)=O)c1 (single isomer, unassigned; (+)) | – | 27 | 1 | 68 | 290 | 8 | Not Active | AUC [10]: 1250 ng·h/mL; clearance [11]: 35 mL/min/kg; Cmax [12]: 104 ng/mL; hepatocyte CLint [13]: 8.8 µL/min/1e6 cells; Vd [14]: 10 L/kg; bioavailability [15]: 27%; solubility thermodynamic at 24 h [16]: 1 µg/mL (≈ 1.88 µM); LBF [17]: 40%; half-life [18]: 3.9 h
COc1cc(NC(C(=O)c2c[nH]c3cc(F)ccc23)c2ccc(Cl)cc2OCCO)cc(S(C)(=O)=O)c1 (single isomer, unassigned; (+)) | – | 29 | 0.46 | 9 | 71 | 1 | – | –
COc1cc(NC(C(=O)c2c[nH]c3c(C)c(OC)ccc23)c2ccc(Cl)cc2OC)cc(S(C)(=O)=O)c1 (single isomer, unassigned; (+)) | < 8 | 14 | 0.11 | 19 | 95 | 2 | 3.59 | –
COc1cc(NC(C(=O)c2c[nH]c3ccccc23)c2ccc(F)cc2OC)cc(OCCO)c1 (single isomer, unassigned; (+)) | 8 | – | 9 | 210 | 760 | 40 | – | microsomal CLint [7]: 24 µL/min/mg; microsomal CLint [8]: 190 µL/min/mg
